Here are results for 122 molecules from a melting point compilation (Tetko et al.).

A word on the melting point: it is the temperature of the solid-liquid transition.

For the molecule `Nc1cccc(C(=O)Nc2cccc(F)c2)c1`, the melting point lay in the range of 123 to 125 °C. Take `Cc1nnc2ccc(C(=O)O)cn12`: the melting point was 307 to 309 °C.

`CN(C)c1nc(C=O)c(Cl)n1-c1ccc(Br)cc1` gave a melting point of 115 to 117 °C.

In turn, `NCc1nnn[nH]1` came in with a melting point of 269 to 271 °C. In the case of `O=C(O)c1cccc(N2CCCNC2=O)c1`, the melting point lay in the range of 277 to 279 °C.

In turn, `CCOC(C(=O)O)(c1ccccc1)c1ccccc1` displayed a melting point of 113 to 115 °C. Take `Cc1ccc(NC(=O)CO)cc1`: the melting point lay within 139 to 141 °C. The same measure for `CN(C)c1ccc2cc(N)ccc2n1`: 84 to 86 °C; for `Cc1cnnc(N)n1`: 174 to 176 °C; for `Nc1ncccc1OCC1CCCCC1`: 117 to 119 °C. In the case of `Nc1cc(-c2ccco2)no1`, the melting point was in the range of 95 to 99 °C.

`CS(=O)(=O)c1ccc(N)c(N)c1` displayed a melting point of 125 to 127 °C.

In turn, `O=C(O)c1n[nH]c2ccccc2c1=O` showed a melting point of 259 to 261 °C. The same measure for `Cn1c(Cl)cnc1CC#N`: 142 to 144 °C. In the case of `Cc1csc(Sc2c(N)cccc2Cl)n1`, the melting point fell in the range of 132 to 134 °C. In turn, `FC(F)(F)c1nnc2ccc(Cl)nn12` showed a melting point of 69 to 71 °C.

`O=C(O)c1cc([N+](=O)[O-])cc(S(=O)(=O)Cl)c1`: the melting point is 162 to 164 °C. With `Cc1ccc(-c2nn(-c3ccccc3)cc2C(=O)O)o1`, the melting point lay within 160 to 163 °C. `O=C(O)CCc1ccnc2ccccc12` returned a melting point of 197 to 199 °C. The same measure for `CC(C)NS(=O)(=O)C1CCNC1` (configuration not stated): 104 to 106 °C; for `O=C(Nc1cccc(NC(=O)c2ccco2)c1)OCC(F)(F)F`: 167 to 169 °C. As for `Cc1nc(N2CCOCC2)sc1C=O`, the figure is 166 to 168 °C; as for `CN(C)c1ccc(C(=O)O)nn1`, 167 to 169 °C; as for `CCCC(=O)N1CCCCC1C(=O)O` (configuration not stated), 63 to 65 °C. Take `N#Cc1ccc(OCC2CO2)c([N+](=O)[O-])c1` (configuration not stated): the melting point was in the range of 85 to 87 °C. Take `O=C(O)c1ccc(S(=O)(=O)Nc2ccccc2F)cc1`: the melting point was 266 to 268 °C. `O=C(O)CCCc1cc(Cl)sc1Cl` yielded a melting point of 42 to 44 °C.

The molecule `COCCOc1ccc(C#N)cn1` displayed a melting point of 39 to 41 °C. As for `CC(Cl)C(=O)N1CCc2ccccc21` (configuration not stated), the figure is 106 to 108 °C; as for `COc1ccc(C2C(C(=O)O)CC(=O)N2C)cc1` (configuration not stated), 183 to 185 °C. For `Nc1ccc(OCC(F)(F)F)c(C(F)(F)F)c1`, the melting point was 48 to 50 °C. As for `NS(=O)(=O)c1ccc2c(c1)CCCN2`, the figure is 161 to 163 °C; as for `Cc1cccc(NS(=O)(=O)c2cc(C(=O)O)c(Cl)cc2Cl)c1`, 172 to 174 °C; as for `CC(=O)C(C#N)c1ccc(Cl)cc1` (configuration not stated), 129 to 131 °C.

`Fc1ccc(-c2nnc(S)n2CCN2CCOCC2)cc1` displayed a melting point of 212 to 214 °C. Take `N#Cc1ncn(CC(N)=O)n1`: the melting point was 194 to 196 °C. Molecule `Cc1nc(O)nc(C)c1Br` yielded a melting point of 210 to 212 °C. Consider `N[C@H]1CC[C@@H](CO)CC1`, for which the melting point is 144 to 146 °C. Consider `O=C(O)C1CC1c1ccc(OC(F)F)cc1` (configuration not stated), for which the melting point fell in the range of 73 to 75 °C.

In the case of `CN(C)S(=O)(=O)c1cc(C(=O)O)ccc1Br`, the melting point lay within 257 to 259 °C. For the molecule `CC(C)(C)OC(=O)NCC1CNc2ccccc21` (configuration not stated), the melting point lay in the range of 80 to 82 °C. On to `Cc1cc(C)c(CN)c(=O)[nH]1`, for which the melting point was 139 to 141 °C. The same measure for `Nc1cc(C2CCC2)no1`: 77 to 79 °C. As for `O=C1C(Br)CCN1c1ccc(F)c(Cl)c1` (configuration not stated), the figure is 99 to 101 °C; as for `COc1ccc2c(c1)c(C(=O)O)c(C)n2Cc1ccccc1`, 209 to 211 °C.

As for `Cn1ccnc1C(=O)c1ccc(Cl)c([N+](=O)[O-])c1`, the melting point lay within 145 to 147 °C. `CC(C)NS(=O)(=O)Cc1ccc(C#N)cc1` displayed a melting point of 158 to 160 °C.

The molecule `COC(=O)c1ccc(I)cn1` yielded a melting point of 129 to 131 °C. As for `CCn1c(C)nc2cc(S(=O)(=O)C(F)F)ccc21`, the melting point is 161 to 163 °C. Molecule `N#Cc1ccc(NC(=O)CCCl)cc1` returned a melting point of 152 to 154 °C.

Regarding `N#CCOc1ccc(Cl)cc1CBr`, the melting point is 85 to 87 °C. `CCCN(CCC)C(=O)C1C2C=CC(C2)C1C(=O)O` (configuration not stated) returned a melting point of 113 to 115 °C. Take `Oc1ccnc2cc(F)c(F)cc12`: the melting point is 298 to 300 °C.

In turn, `CCOCCn1c(N)cc(=O)[nH]c1=O` registered a melting point of 257 to 259 °C. The same measure for `CC(C)N1C(=O)CNC1=O`: 83 to 85 °C; for `CCOC(=O)c1sc2nc(CS(=O)(=O)CC(=O)O)[nH]c(=O)c2c1C`: 277 to 279 °C; for `CN(C)c1ccc(S(N)(=O)=O)cc1N`: 150 to 154 °C. `Nc1c(Cl)nc(-c2ccccc2)nc1Cl` had a melting point of 140 to 142 °C. As for `Nc1ccnn1Cc1ccc(Br)s1`, the melting point fell in the range of 83 to 85 °C. `Cc1cc(N)n(-c2nc3ccccc3o2)n1` displayed a melting point of 221 to 223 °C. Consider `Sc1nc2ccccc2nc1S`, for which the melting point lay within 345 to 347 °C.

`COC(=O)c1c(NC(=O)CCl)sc(C)c1C` returned a melting point of 143 to 145 °C. The same measure for `COc1ccccc1NS(=O)(=O)c1cc(N)ccc1N1CCCCC1`: 169 to 171 °C; for `CNS(=O)(=O)c1ccc(S(=O)(=O)Cl)cc1`: 99 to 101 °C. `Cc1cc(C)n2nc(C(=O)O)nc2n1` returned a melting point of 178 to 180 °C.

`Nc1ccc2nc(CN3CCOCC3)[nH]c2c1` showed a melting point of 160 to 162 °C. Regarding `O=C(O)c1nc(NCc2ccccc2)ncc1Cl`, the melting point fell in the range of 165 to 167 °C. `Sc1nncn1CCc1ccccn1` registered a melting point of 204 to 206 °C. `Cn1cc(C=O)c(-c2cc3ccccc3o2)n1`: the melting point lay within 151 to 153 °C.

In the case of `COc1ccc(NC(=O)CC(C)=O)c(OC)c1`, the melting point lay in the range of 96 to 98 °C. As for `CCS(=O)c1ccccc1C(=O)O` (configuration not stated), the figure is 128 to 130 °C; as for `Ic1ccc(OCc2cccnc2)cc1`, 72 to 74 °C; as for `CC(C)(C)OC(=O)N[C@@H]1CCCC[C@H]1N` (relative stereo), 76 to 78 °C. As for `Cn1ncc2c(=O)n(CCC(=O)O)cnc21`, the figure is 212 to 214 °C. The molecule `Cc1c(C(=O)O)cnc2c1c(=O)n(C)c(=O)n2C` came in with a melting point of 279 to 281 °C. The same measure for `CC(C)N1C(=O)CNCC1(C)C`: 85 to 87 °C; for `O=C(OCc1ccccc1)N1CCCC1CS(=O)(=O)Cl` (configuration not stated): 60 to 62 °C; for `NCc1nnc2ccccn12`: 131 to 133 °C. As for `CCC(=O)c1ccc(OC)c(OC)c1`, the figure is 61 to 63 °C; as for `CC(C)C(Br)C(=O)NCc1ccccc1F` (configuration not stated), 104 to 106 °C. `O=C(O)c1ccc(N2CCCC2=O)cc1`: the melting point fell in the range of 250 to 252 °C. The molecule `NC(Cc1nc2ccccc2s1)=NO` had a melting point of 159 to 161 °C. With `CC(CC(N)=NO)NC(=O)OC(C)(C)C` (configuration not stated), the melting point was 96 to 98 °C. As for `O=Cc1cc(Cl)cc2cccnc12`, the figure is 155 to 157 °C; as for `CCCc1onc(C)c1C(=O)O`, 107 to 109 °C. Consider `O=C1COc2c(Br)cc(Cl)cc21`, for which the melting point was in the range of 139 to 141 °C. As for `CC1(C(=O)O)CCCN1C(=O)OCc1ccccc1` (configuration not stated), the melting point is 119 to 121 °C.

In turn, `Cc1cc(C)n(CC(=O)NN)n1` registered a melting point of 102 to 104 °C. `Cc1ccc(NC2=NC(C)(C)CS2)cc1`: the melting point lay within 164 to 166 °C. The molecule `NC(C(=O)O)c1ccccc1Br` (configuration not stated) came in with a melting point of 199 to 201 °C.

The molecule `CC1CCCC(C)N1C(=O)CCl` (configuration not stated) gave a melting point of 71 to 73 °C. `CN(C)C(=O)c1cccc([N+](=O)[O-])c1`: the melting point is 79 to 81 °C. For the molecule `CS(=O)(=O)Nc1cccc(O)c1`, the melting point lay within 93 to 95 °C.

As for `CC(C)(C)OC(=O)NC1CCN(C2CCNC2)CC1` (configuration not stated), the melting point lay in the range of 108 to 110 °C. The molecule `Cc1nc2ccccc2c(N)c1C(C)C` yielded a melting point of 123 to 125 °C. As for `CC1(C)CCc2c(sc(N)c2C(=O)N2CCOCC2)C1`, the melting point was 138 to 140 °C. The molecule `CCOC(=O)C(=O)Cc1ccc2ccccc2n1` returned a melting point of 130 to 132 °C. On to `O=C(O)c1cc(-c2ccccc2F)on1`, for which the melting point lay within 182 to 184 °C. As to `Clc1nc(CN2CCCCC2)nc2sc3c(c12)CCCC3`, the melting point was in the range of 51 to 53 °C.

`CN(C)C(=O)c1ccc(S(N)(=O)=O)cc1` showed a melting point of 206 to 208 °C.

In turn, `Nc1c(C(=O)O)nnc2ccccc12` registered a melting point of 257 to 259 °C. As for `O=C(O)C1CCN(C(=O)NCc2ccco2)CC1`, the figure is 138 to 140 °C; as for `O=S(=O)(c1ccc(C(F)(F)F)cc1)N1CCNCC1`, 163 to 169 °C. Molecule `Nc1ccc(C(=O)N2CCOCC2)cc1` came in with a melting point of 134 to 136 °C. The same measure for `CNC1CCC(NC(=O)OC(C)(C)C)CC1` (configuration not stated): 72 to 74 °C. `Cn1cc(C(=O)O)c(-c2ccc([N+](=O)[O-])cc2)n1`: the melting point was in the range of 299 to 301 °C. Regarding `CCCCCCCC(=O)NCCCC(=O)O`, the melting point fell in the range of 69 to 71 °C. `Nc1ccc(-n2cnnn2)cc1`: the melting point is 140 to 142 °C. `CSc1ccccc1NC(=O)C(C)Cl` (configuration not stated): the melting point lay within 59 to 61 °C. As for `NC(=O)c1cn[nH]c1`, the melting point is 223 to 225 °C.

Take `Cc1noc(NC(=O)CCl)n1`: the melting point was 161 to 163 °C.

`CCCC(C(=O)O)N1CCN(C(=O)OC(C)(C)C)CC1` (configuration not stated): the melting point fell in the range of 149 to 151 °C. As for `Cc1ccnc(O)c1C(=O)O`, the figure is 229 to 231 °C.

The molecule `N#CCN1CCC(=O)CC1` had a melting point of 91 to 93 °C.

On to `O=C(CCl)c1ccc(CC(=O)N2CCOCC2)s1`, for which the melting point was in the range of 136 to 138 °C. `O=C(O)C1(c2ccc(Br)cc2)CCCCC1`: the melting point lay within 179 to 181 °C. As to `COC(=O)c1cccc(OC)c1O`, the melting point was in the range of 65 to 68 °C. Molecule `COC(=O)c1cc([N+](=O)[O-])c[nH]c1=O` returned a melting point of 254 to 256 °C. As for `C=CCNc1nnc(S)s1`, the figure is 133 to 135 °C. The same measure for `Nc1cc(-c2ccc(OC(F)F)cc2)no1`: 88 to 90 °C; for `Nc1ccc(F)c(NC(=O)c2ccccc2I)c1`: 147 to 149 °C; for `Cc1nnc(-c2ccc(Br)c(F)c2)o1`: 138 to 140 °C.
